Experimental data taken from US8802597B2, “Herbicidal pyrimidines” (E I du Pont de Nemours and Company, priority 2003, dated 2014).
Where two headings read alike, the source gives them in different places.

What was measured:
Format in all cases: in vivo
[1] = system: pigweed (Amaranthus retroflexus); test: Test B pre/postemergence; settings: Amaranthus retroflexus; for pest or weed control at 125 g/ha: 125 g ai/ha; for pest or weed control at 500 g/ha: 500 g ai/ha
Procedure, shortened: (§1)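 Greenhouse whole-plant test; surfactant-containing non-phytotoxic solvent formulation; pre- and postemergence applications made simultaneously; post plants 2–18 cm, 1- to 4-leaf; visual scoring at 13–15 days on 0–100 scale relative to controls.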

[2] = system: morningglory (Ipomoea coccinea); test: Test B pre/postemergence; settings: Ipomoea; for pest or weed control at 125 g/ha: 125 g ai/ha; for pest or weed control at 500 g/ha: 500 g ai/ha
Procedure, shortened: as §1

[3] = system: Surinam grass (Brachiaria decumbens); test: Test B pre/postemergence; settings: Urochloa decumbens; for pest or weed control at 125 g/ha: 125 g ai/ha; for pest or weed control at 500 g/ha: 500 g ai/ha
Procedure, shortened: as §1

[4] = system: barnyardgrass (Echinochloa crus-galli); test: Test B pre/postemergence; settings: Echinochloa crus-galli; for pest or weed control at 125 g/ha: 125 g ai/ha; for pest or weed control at 500 g/ha: 500 g ai/ha
Procedure, shortened: as §1

[5] = system: lambsquarters (Chenopodium album); test: Test B pre/postemergence; settings: Chenopodium album; for pest or weed control at 125 g/ha: 125 g ai/ha; for pest or weed control at 500 g/ha: 500 g ai/ha
Procedure, shortened: as §1

[6] = system: giant foxtail (Setaria faberii); test: Test B pre/postemergence; settings: Setaria faberi; for pest or weed control at 125 g/ha: 125 g ai/ha; for pest or weed control at 500 g/ha: 500 g ai/ha
Procedure, shortened: as §1

corn (Zea mays) = test: Test B pre/postemergence; settings: Zea mays
Procedure, shortened: as §1

[7] = system: cocklebur (Xanthium strumarium); test: Test B pre/postemergence; settings: Xanthium strumarium; for pest or weed control at 125 g/ha: 125 g ai/ha; for pest or weed control at 500 g/ha: 500 g ai/ha
Procedure, shortened: as §1

[8] = system: wheat (Triticum aestivum); test: Test B pre/postemergence; settings: Triticum aestivum; for plant injury at 125 g/ha: 125 g ai/ha; for plant injury at 500 g/ha: 500 g ai/ha
Procedure, shortened: as §1

[9] = system: crabgrass (Digitaria sanguinalis); test: Test B pre/postemergence; settings: Digitaria sanguinalis; for pest or weed control at 125 g/ha: 125 g ai/ha; for pest or weed control at 500 g/ha: 500 g ai/ha
Procedure, shortened: as §1

[10] = system: velvetleaf (Abutilon theophrasti); test: Test B pre/postemergence; settings: Abutilon theophrasti; for pest or weed control at 125 g/ha: 125 g ai/ha; for pest or weed control at 500 g/ha: 500 g ai/ha
Procedure, shortened: as §1

wild oat (Avena fatua) = test: Test B postemergence; settings: Avena fatua, post-emergence
Procedure, shortened: as §1

[11] = system: blackgrass (Alopecurus myosuroides); test: Test B postemergence; settings: Alopecurus myosuroides, post-emergence
Procedure, shortened: as §1

[12] = system: umbrella sedge (Cyperus difformis); test: Test B flooded paddy test; settings: Cyperus difformis, Flood, 1000 g ai/ha; scale 0 to 100; read-out: Plant response rating, Sedge, Umbrella
Procedure, shortened: (§2)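 Plants were grown to the 2-leaf stage before treatment, then kept in a greenhouse for 13 to 15 days. Injury was rated visually against untreated controls on a 0 to 100 scale, where 0 is no effect and 100 is complete control.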

[13] = system: barnyardgrass (Echinochloa crus-galli); test: Test B flooded paddy test; settings: Echinochloa crus-galli, Flood, 1000 g ai/ha; scale 0 (no effect) to 100 (complete control); read-out: Plant response rating, Barnyardgrass
Procedure, shortened: as §2

[14] = system: duck salad (Heteranthera limosa); test: Test B flooded paddy test; settings: Heteranthera limosa, Flood, 1000 g ai/ha; scale 0 to 100; read-out: Plant response rating, Ducksalad
Procedure, shortened: as §2

rice (Oryza sativa) = test: Test B flooded paddy test; settings: Oryza sativa, Flood, 1000 g ai/ha; scale 0 to 100; read-out: Plant response rating, Rice
Procedure, shortened: as §2

[15] = pre-emergence, Preemergence, scale 0 to 100 (0 no effect, 100 complete control), read-out: Plant response rating, Wheat

SMILES: CCOC(=O)c1nc(C(C)(C)C)nc(N)c1Br [Compound 36]
- pest or weed control at 125 g/ha ([1]; post-emergence, Postemergence, scale 0 to 100 (0 no effect, 100 complete control), read-out: Pigweed plant response rating): 20%
- pest or weed control at 500 g/ha ([1]; post-emergence, Postemergence, scale 0 to 100, read-out: Plant response rating, Pigweed): 30%
- pest or weed control at 125 g/ha ([1]; pre-emergence, Preemergence, scale 0 to 100 (0 no effect, 100 complete control), read-out: Plant response rating, Pigweed): 0%
- pest or weed control at 500 g/ha ([1]; pre-emergence, Preemergence, scale 0 to 100 (0 no effect, 100 complete control), read-out: Pigweed plant response rating): 20%
- pest or weed control at 125 g/ha ([2]; post-emergence, Postemergence, scale 0 to 100 (0 no effect, 100 complete control), read-out: Morningglory plant response rating): 10%
- pest or weed control at 500 g/ha ([2]; post-emergence, Postemergence, scale 0 to 100, read-out: Plant response rating, Morningglory): 70%
- pest or weed control at 125 g/ha ([2]; pre-emergence, Preemergence, scale 0 to 100 (0 no effect, 100 complete control), read-out: Plant response rating, Morningglory): 0%
- pest or weed control at 500 g/ha ([2]; pre-emergence, Preemergence, scale 0 to 100 (0 no effect, 100 complete control), read-out: Morningglory plant response rating): 0%
- pest or weed control at 125 g/ha ([3]; post-emergence, Postemergence, scale 0 to 100 (0 no effect, 100 complete control), read-out: Surinam Grass plant response rating): 0%
- pest or weed control at 500 g/ha ([3]; post-emergence, Postemergence, scale 0 to 100, read-out: Plant response rating, Surinam Grass): 0%
- pest or weed control at 125 g/ha ([3]; pre-emergence, Preemergence, scale 0 to 100 (0 no effect, 100 complete control), read-out: Plant response rating, Surinam Grass): 0%
- pest or weed control at 500 g/ha ([3]; pre-emergence, Preemergence, scale 0 to 100 (0 no effect, 100 complete control), read-out: Surinam Grass plant response rating): 0%
- pest or weed control at 125 g/ha ([4]; post-emergence, Postemergence, scale 0 to 100 (0 no effect, 100 complete control), read-out: Barnyardgrass plant response rating): 0%
- pest or weed control at 500 g/ha ([4]; post-emergence, Postemergence, scale 0 to 100, read-out: Plant response rating, Barnyardgrass): 0%
- pest or weed control at 125 g/ha ([4]; pre-emergence, Preemergence, scale 0 to 100 (0 no effect, 100 complete control), read-out: Plant response rating, Barnyardgrass): 0%
- pest or weed control at 500 g/ha ([4]; pre-emergence, Preemergence, scale 0 to 100 (0 no effect, 100 complete control), read-out: Barnyardgrass plant response rating): 0%
- pest or weed control at 125 g/ha ([5]; post-emergence, Postemergence, scale 0 to 100 (0 no effect, 100 complete control), read-out: Lambsquarters plant response rating): 40%
- pest or weed control at 500 g/ha ([5]; post-emergence, Postemergence, scale 0 to 100, read-out: Plant response rating, Lambsquarters): 50%
- pest or weed control at 125 g/ha ([5]; pre-emergence, Preemergence, scale 0 to 100 (0 no effect, 100 complete control), read-out: Plant response rating, Lambsquarters): 0%
- pest or weed control at 500 g/ha ([5]; pre-emergence, Preemergence, scale 0 to 100 (0 no effect, 100 complete control), read-out: Lambsquarters plant response rating): 40%
- pest or weed control at 125 g/ha ([6]; post-emergence, Postemergence, scale 0 to 100 (0 no effect, 100 complete control), read-out: Foxtail, Giant plant response rating): 0%
- pest or weed control at 500 g/ha ([6]; post-emergence, Postemergence, scale 0 to 100, read-out: Plant response rating, Foxtail, Giant): 10%
- pest or weed control at 125 g/ha ([6]; pre-emergence, Preemergence, scale 0 to 100 (0 no effect, 100 complete control), read-out: Plant response rating, Foxtail, Giant): 0%
- pest or weed control at 500 g/ha ([6]; pre-emergence, Preemergence, scale 0 to 100 (0 no effect, 100 complete control), read-out: Foxtail, Giant plant response rating): 0%
- plant injury at 125 g/ha (corn (Zea mays); post-emergence, Postemergence, 125 g ai/ha, scale 0 to 100 (0 no effect, 100 complete control), read-out: Corn plant response rating): 0%
- Corn plant response rating (crop injury, 0 = no effect, 100 = complete kill) at 500 g/ha (corn (Zea mays); post-emergence, Postemergence, 500 g ai/ha, scale 0 to 100): 0%
- Corn plant response rating (crop injury, 0 = no effect, 100 = complete kill) at 125 g/ha (corn (Zea mays); pre-emergence, Preemergence, 125 g ai/ha, scale 0 to 100 (0 no effect, 100 complete control)): 0%
- plant injury at 500 g/ha (corn (Zea mays); pre-emergence, Preemergence, 500 g ai/ha, scale 0 to 100 (0 no effect, 100 complete control), read-out: Corn plant response rating): 0%
- pest or weed control at 125 g/ha ([7]; post-emergence, Postemergence, scale 0 to 100 (0 no effect, 100 complete control), read-out: Cocklebur plant response rating): 20%
- pest or weed control at 500 g/ha ([7]; post-emergence, Postemergence, scale 0 to 100, read-out: Plant response rating, Cocklebur): 70%
- pest or weed control at 125 g/ha ([7]; pre-emergence, Preemergence, scale 0 to 100 (0 no effect, 100 complete control), read-out: Plant response rating, Cocklebur): 10%
- pest or weed control at 500 g/ha ([7]; pre-emergence, Preemergence, scale 0 to 100 (0 no effect, 100 complete control), read-out: Cocklebur plant response rating): 60%
- plant injury at 125 g/ha ([8]; post-emergence, Postemergence, scale 0 to 100 (0 no effect, 100 complete control), read-out: Wheat plant response rating): 0%
- plant injury at 500 g/ha ([8]; post-emergence, Postemergence, scale 0 to 100, read-out: Plant response rating, Wheat): 40%
- plant injury at 125 g/ha [8, 15]: 0%
- plant injury at 500 g/ha [8, 15]: 0%
- pest or weed control at 125 g/ha ([9]; post-emergence, Postemergence, scale 0 to 100 (0 no effect, 100 complete control), read-out: Crabgrass plant response rating): 0%
- pest or weed control at 500 g/ha ([9]; post-emergence, Postemergence, scale 0 to 100, read-out: Plant response rating, Crabgrass): 0%
- pest or weed control at 125 g/ha ([9]; pre-emergence, Preemergence, scale 0 to 100 (0 no effect, 100 complete control), read-out: Plant response rating, Crabgrass): 0%
- pest or weed control at 500 g/ha ([9]; pre-emergence, Preemergence, scale 0 to 100 (0 no effect, 100 complete control), read-out: Crabgrass plant response rating): 0%
- pest or weed control at 125 g/ha ([10]; post-emergence, Postemergence, scale 0 to 100 (0 no effect, 100 complete control), read-out: Velvetleaf plant response rating): 20%
- pest or weed control at 500 g/ha ([10]; post-emergence, Postemergence, scale 0 to 100, read-out: Plant response rating, Velvetleaf): 40%
- pest or weed control at 125 g/ha ([10]; pre-emergence, Preemergence, scale 0 to 100 (0 no effect, 100 complete control), read-out: Plant response rating, Velvetleaf): 10%
- pest or weed control at 500 g/ha ([10]; pre-emergence, Preemergence, scale 0 to 100 (0 no effect, 100 complete control), read-out: Velvetleaf plant response rating): 40%
- pest or weed control at 125 g/ha (wild oat (Avena fatua); 125 g ai/ha, scale 0 to 100 (0 no effect, 100 complete control), read-out: Oat, Wild plant response rating): 0%
- pest or weed control at 500 g/ha (wild oat (Avena fatua); 500 g ai/ha, scale 0 to 100, read-out: Plant response rating, Oat, Wild): 40%
- pest or weed control at 125 g/ha ([11]; 125 g ai/ha, scale 0 to 100 (0 no effect, 100 complete control), read-out: Blackgrass plant response rating): 0%
- pest or weed control at 500 g/ha ([11]; 500 g ai/ha, scale 0 to 100, read-out: Plant response rating, Blackgrass): 40%
- pest or weed control at 1000 g/ha [12]: 0%
- pest or weed control at 1000 g/ha [13]: 0%
- pest or weed control at 1000 g/ha [14]: 0%
- plant injury at 1000 g/ha (rice (Oryza sativa)): 0%
